Assay results taken from patent US9662327B2 (AGIOS PHARMACEUTICALS, INC, priority 2011, dated 2017).
pIC50: −log10 of the molar value. Read-outs that look alike come from different tables or passages of the source.

What was measured:
[1] = target: IDH1 R132H (Homo sapiens (Human), UniProt O75874, R132H); experiment: Assays for IDH1 R132H Inhibitors (NADPH/aKG, resazurin detection); format: biochemical; conditions: IDH1 R132H enzyme
Method in brief: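 Substrate mix held 8 uM NADPH plus 2 mM aKG; buffer was 20 mM Tris pH 7.5 with 150 mM NaCl, 10 mM MgCl2, 0.03% BSA. After 50 min room-temperature reaction, NADPH remaining was detected with 30 μM resazurin mix over 5 min.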

[2] = tested on: HT1080 cells; experiment: Cellular assay for IDH1m inhibitors: inhibition of 2-HG production in HT1080 cells (LC-MS); format: cell-based; conditions: Homo sapiens, HT-1080, 48 hours
Protocol: Cells (e.g., HT1080 or U87MG) are grown in T125 flasks in DMEM containing 10% FBS, 1× penicillin/streptomycin and 500 ug/mL G418. They are harvested by trypsin and seeded into 96 well white bottom plates at a density of 5000 cell/well in 100 ul/well in DMEM with 10% FBS. No cells are plates in columns 1 and 12. Cells are incubated overnight at 37 C in 5% CO2. The next day compounds are made up at 2× concentration and 100 ul are added to each cell well. The final concentration of DMSO is 0.2% and the DMSO control wells are plated in row G. The plates are then placed in the incubator for 48 hours. At 48 hours, 100 ul of media is removed from each well and analyzed by LC-MS for 2-HG concentrations. The cell plate is placed back in the incubator for another 24 hours. At 72 hours post compound addition, 10 mL/plate of Promega Cell Titer Glo reagent is thawed and mixed. The cell plate is removed from the incubator and allowed to equilibrate to room temperature. Then 100 ul of reagent is added to each well of media. The cell plate is then placed on an orbital shaker for 10 minutes and then allowed to sit at room temperature for 20 minutes. The plate is then read for luminescence with an integration time of 500 ms.

[3] = Table 2, read-out: IDHR132H Activity

Chain of IDH1 R132H (O75874 whole entry R132H): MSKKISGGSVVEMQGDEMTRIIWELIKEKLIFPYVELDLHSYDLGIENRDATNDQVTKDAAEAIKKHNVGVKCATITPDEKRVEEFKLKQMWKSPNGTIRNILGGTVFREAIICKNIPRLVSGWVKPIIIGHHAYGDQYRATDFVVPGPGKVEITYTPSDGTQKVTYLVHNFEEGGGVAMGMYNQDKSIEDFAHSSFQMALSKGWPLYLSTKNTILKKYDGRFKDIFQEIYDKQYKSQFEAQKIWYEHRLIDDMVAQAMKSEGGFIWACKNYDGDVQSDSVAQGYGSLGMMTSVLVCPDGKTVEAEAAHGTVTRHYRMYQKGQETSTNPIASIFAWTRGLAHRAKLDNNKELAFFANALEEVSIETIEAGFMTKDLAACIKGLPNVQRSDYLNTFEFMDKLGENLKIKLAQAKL

| pIC50 [1, 3] | pIC50 ([1]; Table 3, read-out: R132H IC50) | pIC50 [2] | SMILES |
| --- | --- | --- | --- |
| – | > 6.30 | – | COCCC(=O)N1CCN(c2nc(C3CC3)c3c(c2C#N)CCN(C(C)=O)C3)C[C@H]1C1CC1 [Compound 478, (R)-7-acetyl-1-cyclopropyl-3-(3-cyclopropyl-4-(3-methoxypropanoyl)piperazin-1-yl)-5,6,7,8-tetrahydro-2,7-naphthyridine-4-carbonitrile] |
| – | 6.00 to 6.30 | – | CC(=O)N1CCc2c(C#N)c(N3CCN(C(=O)C4CC4)[C@H](C4CC4)C3)nc(C3CC3)c2C1 [Compound 480, (R)-7-acetyl-3-(4-(cyclopropanecarbonyl)-3-cyclopropylpiperazin-1-yl)-1-cyclopropyl-5,6,7,8-tetrahydro-2,7-naphthyridine-4-carbonitrile] |
| – | 6.00 to 6.30 | – | COCCC(=O)N1CCN(c2nc(C3CC3)c3c(c2C#N)CCN(CCO)C3)C[C@H]1C1CC1 [Compound 484, (R)-1-cyclopropyl-3-(3-cyclopropyl-4-(3-methoxypropanoyl)piperazin-1-yl)-7-(2-hydroxyethyl)-5,6,7,8-tetrahydro-2,7-naphthyridine-4-carbonitrile] |
| – | > 6.30 | 6.00 to 6.30 | C=CC(=O)N1CCc2c(C#N)c(N3CCN(C(=O)C4CC4)[C@H](C4CC4)C3)nc(C3CC3)c2C1 [Compound 489, (R)-7-acryloyl-3-(4-(cyclopropanecarbonyl)-3-cyclopropylpiperazin-1-yl)-1-cyclopropyl-5,6,7,8-tetrahydro-2,7-naphthyridine-4-carbonitrile] |
| – | > 6.30 | 6.00 to 6.30 | C=CC(=O)N1CCc2c(C#N)c(N3CCN(C(=O)CC(F)(F)F)[C@H](C4CC4)C3)nc(C3CC3)c2C1 [Compound 490, (R)-7-acryloyl-1-cyclopropyl-3-(3-cyclopropyl-4-(3,3,3-trifluoropropanoyl)piperazin-1-yl)-5,6,7,8-tetrahydro-2,7-naphthyridine-4-carbonitrile] |
| – | 6.00 to 6.30 | – | C/C=C/C(=O)N1CCc2c(C#N)c(N3CCN(C(=O)C4CC4)[C@H](C4CC4)C3)nc(C3CC3)c2C1 [Compound 499, (R,E)-7-but-2-enoyl-3-(4-(cyclopropanecarbonyl)-3-cyclopropylpiperazin-1-yl)-1-cyclopropyl-5,6,7,8-tetrahydro-2,7-naphthyridine-4-carbonitrile] |
| – | 6.00 to 6.30 | – | COCCC(=O)N1CCN(c2nc(C3CC3)c3c(c2C#N)CCN(C(=O)CCO)C3)C[C@H]1C1CC1 [Compound 501, (R)-1-cyclopropyl-3-(3-cyclopropyl-4-(3-methoxypropanoyl)piperazin-1-yl)-′7-(3-hydroxypropanoyl)-5,6,7,8-tetrahydro-2,7-naphthyridine-4-carbonitrile] |
| – | 6.00 to 6.30 | – | C=CS(=O)(=O)N1CCc2c(C#N)c(N3CCN(C)CC3)nc(C3CC3)c2C1 [Compound 503] |

Second part, the compound before the results:

| SMILES | pIC50 [1, 3] | pIC50 ([1]; Table 3, read-out: R132H IC50) | pIC50 [2] |
| --- | --- | --- | --- |
| CC(C)[C@@H]1CN(c2nc(C3CC3)c3c(c2C#N)CC(C)(C)OC3)CCN1C(=O)COC1CCOC1 (stereo partly drawn) [Compound 417, 8-cyclopropyl-6-((3R)-3-isopropyl-4-(2-(tetrahydrofuran-3-yloxy)acetyl)piperazin-1-yl)-3,3-dimethyl-3,4-dihydro-1H-pyrano[3,4-c]pyridine-5-carbonitrile] | 5.00 to 6.00 | – | – |
| CC(C)[C@@H]1CN(c2nc(C3CC3)c3c(c2C#N)CC(C)(C)OC3)CCN1C(=O)CC(=O)O [Compound 418, (R)-3-(4-(5-cyano-8-cyclopropyl-3,3-dimethyl-3,4-dihydro-1H-pyrano[3,4-c]pyridin-6-yl)-2-isopropylpiperazin-1-yl)-3-oxopropanoic acid] | 5.00 to 6.00 | – | – |
| CC(=O)OCC(C)(C)C(=O)N1CCN(c2nc(C3CC3)c3c(c2C#N)CC(C)(C)OC3)C[C@H]1C(C)C [Compound 419, (R)-3-(4-(5-cyano-8-cyclopropyl-3,3-dimethyl-3,4-dihydro-1H-pyrano[3,4-c]pyridin-6-yl)-2-isopropylpiperazin-1-yl)-2,2-dimethyl-3-oxopropyl acetate] | 5.00 to 6.00 | – | – |
| COC(=O)C(C)CCC(=O)N1CCN(c2nc(C3CC3)c3c(c2C#N)CC(C)(C)OC3)C[C@H]1C(C)C (stereo partly drawn) [Compound 439, Methyl 5-((R)-4-(5-cyano-8-cyclopropyl-3,3-dimethyl-3,4-dihydro-1H-pyrano[3,4-c]pyridin-6-yl)-2-isopropylpiperazin-1-yl)-2-methyl-5-oxopentanoate] | – | 6.00 to 6.30 | – |
| CC(C)[C@@H]1CN(c2nc(C3CC3)c3c(c2C#N)CC(C)(C)OC3)CCN1C(=O)CS(C)(=O)=O [Compound 446, (R)-8-cyclopropyl-6-(3-isopropyl-4-(2-(methylsulfonyl)acetyl)piperazin-1-yl)-3,3-dimethyl-3,4-dihydro-1H-pyrano[3,4-c]pyridine-5-carbonitrile] | – | 6.00 to 6.30 | – |
| CC(C)[C@@H]1CN(c2nc(C3CC3)c3c(c2C#N)CC(C)(C)OC3)CCN1C(=O)CCc1ccco1 [Compound 447, (R)-8-cyclopropyl-6-(4-(3-(furan-2-yl)propanoyl)-3-isopropylpiperazin-1-yl)-3,3-dimethyl-3,4-dihydro-1H-pyrano[3,4-c]pyridine-5-carbonitrile] | – | 6.00 to 6.30 | – |
| CC(C)[C@@H]1CN(c2nc(C3CC3)c3c(c2C#N)CC(C)(C)OC3)CCN1C(=O)CCc1nnco1 [Compound 448, (R)-6-(4-(3-(1,3,4-oxadiazol-2-yl)propanoyl)-3-isopropylpiperazin-1-yl)-8-cyclopropyl-3,3-dimethyl-3,4-dihydro-1H-pyrano[3,4-c]pyridine-5-carbonitrile] | – | 6.00 to 6.30 | – |
| CC(C)[C@@H]1CN(c2nc(C3CC3)c3c(c2C#N)CC(C)(C)OC3)CCN1C(=O)C[S+](C)[O-] (stereo partly drawn) [Compound 453, 8-Cyclopropyl-6-((3R)-3-isopropyl-4-(2-(methylsulfinyl)acetyl)piperazin-1-yl)-3,3-dimethyl-3,4-dihydro-1H-pyrano[3,4-c]pyridine-5-carbonitrile] | – | 6.00 to 6.30 | – |
| CCOCCC(=O)N1CCN(c2nc(C3CC3)c3c(c2C#N)CC(C)(C)OC3)C[C@H]1C(C)C [Compound 459, (R)-8-cyclopropyl-6-(4-(3-ethoxypropanoyl)-3-isopropylpiperazin-1-yl)-3,3-dimethyl-3,4-dihydro-1H-pyrano[3,4-c]pyridine-5-carbonitrile] | – | > 6.30 | – |
| COCCC(=O)N1CCN(c2nc(C3CC3)c3c(c2C#N)CC(C)(C)OC3)CC1C(F)F (stereo not shown) [Compound 464] | – | 6.00 to 6.30 | – |
| CC1(C)Cc2c(C#N)c(N3CCN(C(=O)CC4COC4)[C@H](C4CC4)C3)nc(C3CC3)c2CO1 [Compound 466, (R)-8-cyclopropyl-6-(3-cyclopropyl-4-(2-(oxetan-3-yl)acetyl)piperazin-1-yl)-3,3-dimethyl-3,4-dihydro-1H-pyrano[3,4-c]pyridine-5-carbonitrile] | – | 6.00 to 6.30 | – |
| CCCCNC(=O)C(=O)CCC(=O)N1CCN(c2nc(C3CC3)c3c(c2C#N)CC(C)(C)OC3)C[C@H]1C(C)C [Compound 467, (R)—N-butyl-5-(4-(5-cyano-8-cyclopropyl-3,3-dimethyl-3,4-dihydro-1H-pyrano[3,4-c]pyridin-6-yl)-2-isopropylpiperazin-1-yl)-2,5-dioxopentanamide] | – | 6.00 to 6.30 | – |
| CCOC(=O)[C@@H]1CN(c2nc(C3CC3)c3c(c2C#N)CC(C)(C)OC3)CCN1C(C)=O [Compound 468, (S)-ethyl 1-acetyl-4-(5-cyano-8-cyclopropyl-3,3-dimethyl-3,4-dihydro-1H-pyrano[3,4-c]pyridin-6-yl)piperazine-2-carboxylate] | – | 6.00 to 6.30 | – |
| CC1(C)Cc2c(C#N)c(N3CCN(C(=O)CC(F)(F)F)C(CC(F)(F)F)C3)nc(C3CC3)c2CO1 (stereo not shown) [Compound 470, 8-cyclopropyl-3,3-dimethyl-6-(3-(2,2,2-trifluoroethyl)-4-(3,3,3-trifluoropropanoyl)piperazin-1-yl)-3,4-dihydro-1H-pyrano[3,4-c]pyridine-5-carbonitrile] | – | 6.00 to 6.30 | – |
| CC1(C)Cc2c(C#N)c(N3CCN(C(=O)C4CC4)C(CC(F)(F)F)C3)nc(C3CC3)c2CO1 (stereo not shown) [Compound 471, 6-(4-(cyclopropanecarbonyl)-3-(2,2,2-trifluoroethyl)piperazin-1-yl)-8-cyclopropyl-3,3-dimethyl-3,4-dihydro-1H-pyrano[3,4-c]pyridine-5-carbonitrile] | – | 6.00 to 6.30 | – |
| COC(=O)OC[C@@H]1C[C@H]1C(=O)N1CCN(c2nc(C3CC3)c3c(c2C#N)CC(C)(C)OC3)C[C@H]1C(C)C [Compound 472, ((1R,2R)-2-((R)-4-(5-cyano-8-cyclopropyl-3,3-dimethyl-3,4-dihydro-1H-pyrano[3,4-c]pyridin-6-yl)-2-isopropylpiperazine-1-carbonyl)cyclopropyl)methyl methyl carbonate] | – | > 6.30 | – |
| CC1CN(c2nc(C3CC3)c3c(c2C#N)CC(C)(C)OC3)CC(F)CN1C(=O)C1CC1 (stereo not shown) [Compound 474, 6-(4-(cyclopropanecarbonyl)-6-fluoro-3-methyl-1,4-diazepan-1-yl)-8-cyclopropyl-3,3-dimethyl-3,4-dihydro-1H-pyrano[3,4-c]pyridine-5-carbonitrile] | – | 6.00 to 6.30 | – |
| CC1CCN(c2nc(C3CC3)c3c(c2C#N)CC(C)(C)OC3)CCN1C(=O)C1CC1 (stereo not shown) [Compound 475, 6-(4-(cyclopropanecarbonyl)-5-methyl-1,4-diazepan-1-yl)-8-cyclopropyl-3,3-dimethyl-3,4-dihydro-1H-pyrano[3,4-c]pyridine-5-carbonitrile] | – | 6.00 to 6.30 | – |
